Each structure is given as a SMILES string.

This experiment is described as follows: Competition Study 2: ZrCl4(THF)2 added to mixture of DFOPhSO3H and DFOSqTaur, ESI-MS. The format is binding. As to conditions: 50° C., 7 hours, FIG. 46. The procedure: A 3 mM stock solution of each ligand, DFOPhSO3H and DFOSqTaur, was prepared in a mixture of H2O and MeOH (concentrations were confirmed prior to dilution by UV-Vis Fe^3+ titration in H2O, 430 nm). A mixture of both solutions (25 uL each) was mixed thoroughly and heated to 50° C. A stock solution of ZrCl4(THF)2 in H2O/MeOH (3 mM) was also prepared, and 20 uL of this was added to the ligand mixture. The mixture was incubated at 50° C. for 7 hours.

For the molecule `CC(=O)N(O)CCCCCNC(=O)CCC(=O)N(O)CCCCCNC(=O)CCC(=O)N(O)CCCCCNc1c(NCCS(=O)(=O)O)c(=O)c1=O` [DFOSqTaur], the “Zr complex found in competition with DFOPhSO3H” value is given as “presence of the ZrDFOSqTaur complex”.

The record behind these values is patent US11123316B2, “Imaging composition and uses thereof” (The University of Melbourne, priority 2014, dated 2021).
